# Assay results published in patent US20250197372A1 (priority 2020, published 2025).
# pIC50: −log10 of the molar value.
# Legend:
# [1] = biological target: T1, recombinant human GBA (beta-glucocerebrosidase) (Homo sapiens, UniProt P04062); experiment: Beta-glucocerebrosidase (GBA, glucosylceramidase) assay (4-methylumbelliferyl-beta-D-pyranoside substrate, fluorescence); type: biochemical
# T1 sequence (P04062 40-536): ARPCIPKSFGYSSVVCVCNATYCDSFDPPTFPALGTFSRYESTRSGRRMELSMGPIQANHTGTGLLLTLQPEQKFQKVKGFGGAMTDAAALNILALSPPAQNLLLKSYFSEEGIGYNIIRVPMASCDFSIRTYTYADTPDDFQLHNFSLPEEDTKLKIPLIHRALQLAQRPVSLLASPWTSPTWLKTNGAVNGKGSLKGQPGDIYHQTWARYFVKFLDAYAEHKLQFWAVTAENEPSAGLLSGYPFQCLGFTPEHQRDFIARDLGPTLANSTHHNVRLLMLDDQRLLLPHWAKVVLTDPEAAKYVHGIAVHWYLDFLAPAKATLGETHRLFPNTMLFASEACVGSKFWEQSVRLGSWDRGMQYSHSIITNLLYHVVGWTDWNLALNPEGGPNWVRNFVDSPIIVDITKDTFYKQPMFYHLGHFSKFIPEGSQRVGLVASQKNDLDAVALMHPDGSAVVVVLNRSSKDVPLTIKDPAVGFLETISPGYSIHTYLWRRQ
# Method in brief: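 IC50 by four-parameter fit of percent inhibition, with product fluorescence (365/440 nm) read after a glycine/NaOH pH 10 stop. Compound and commercial recombinant human enzyme were incubated 60 min at 37 °C before a further 60 min at 37 °C with 4-methylumbelliferyl-beta-D-pyranoside substrate.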
# [2] = biological target: recombinant human GAA (acid alpha-glucosidase) (Homo sapiens, UniProt P10253); experiment: Acid alpha-glucosidase (GAA) assay (4-methylumbelliferyl-alpha-D-pyranoside substrate, fluorescence); type: biochemical
# Method in brief: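 IC50 from 4-PL curve fit of percent inhibition, based on fluorescence (365/440 nm) of released methylumbelliferone relative to uninhibited enzyme. Compound dilutions and human GAA incubated 60 min, 37 °C, before 20 min substrate reaction at 37 °C, quenched at pH 10.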
Structure (SMILES),pIC50 [1],pIC50 [2]
"O=[N+]([O-])c1cc(-c2ncco2)ccc1NCCc1ccc(CCN2C[C@H](O)[C@@H](O)[C@H](O)[C@H]2CO)cc1 [Compound 1112, (2R,3R,4R,5S)-2-(hydroxymethyl)-1-{2-[4-(2-{[2-nitro-4-(1,3-oxazol-2-yl)phenyl]amino}ethyl)phenyl]ethyl}piperidine-3,4,5-triol]",5.30,6.98
"O=[N+]([O-])c1cc(N2CCOCC2)ccc1NCc1ccc(CN2C[C@@H](O)[C@H](O)[C@@H](O)[C@@H]2CO)cc1 (stereo in doubt) [Compound 1069, (2S,3S,4S,5R)-2-(hydroxymethyl)-1-{[4-({[4-(morpholin-4-yl)-2-nitrophenyl]amino}methyl)phenyl]methyl}piperidine-3,4,5-triol]",5.51,7.17
"O=[N+]([O-])c1cc(-c2ccncc2)ccc1NCCc1ccc(CCN2C[C@H](O)[C@@H](O)[C@H](O)[C@H]2CO)cc1 [Compound 1110, (2R,3R,4R,5S)-2-(hydroxymethyl)-1-{2-[4-(2-{[2-nitro-4-(pyridin-4-yl)phenyl]amino}ethyl)phenyl]ethyl}piperidine-3,4,5-triol]",7.32,8.15
"O=[N+]([O-])c1cc(-c2ncccn2)ccc1NCCc1ccc(CCN2C[C@H](O)[C@@H](O)[C@H](O)[C@H]2CO)cc1 [Compound 1111, (2R,3R,4R,5S)-2-(hydroxymethyl)-1-{2-[4-(2-{[2-nitro-4-(pyrimidin-2-yl)phenyl]amino}ethyl)phenyl]ethyl}piperidine-3,4,5-triol]",5.75,7.70
"N#Cc1cc(NCc2cccc(CN3C[C@H](O)[C@@H](O)[C@H](O)[C@H]3CO)c2)cc(-c2ccc[nH]2)c1 [Compound 1045, 3-(1H-pyrrol-2-yl)-5-{[(3-{[(2R,3R,4R,5S)-3,4,5-trihydroxy-2-(hydroxymethyl)piperidin-1-yl]methyl}phenyl)methyl]amino}benzonitrile]",4.22,5.71
"OC[C@@H]1[C@@H](O)[C@H](O)[C@@H](O)CN1Cc1cccc(CNc2ccc(N3CCOCC3)cc2)c1 [Compound 1081, (2R,3R,4R,5S)-2-(hydroxymethyl)-1-{[3-({[4-(morpholin-4-yl)phenyl]amino}methyl)phenyl]methyl}piperidine-3,4,5-triol]",< 4.00,5.89
"COC(=O)c1cc(Cl)cc(NCCc2ccc(CCN3C[C@H](O)[C@@H](O)[C@H](O)[C@H]3CO)cc2)c1 [Compound 1116, methyl 3-chloro-5-{[2-(4-{2-[(2R,3R,4R,5S)-3,4,5-trihydroxy-2-(hydroxymethyl)piperidin-1-yl]ethyl}phenyl)ethyl]amino}benzoate]",6.04,6.37
"Cc1cc(CN2CCOCC2)cc(NCCCCCCN2C[C@H](O)[C@@H](O)[C@H](O)[C@H]2CO)c1 [Compound 1003, (2R,3R,4R,5S)-2-(hydroxymethyl)-1-[6-({3-methyl-5-[(morpholin-4-yl)methyl]phenyl}amino)hexyl]piperidine-3,4,5-triol]",5.11,6.52
"O=C(O)c1cc(Cl)cc(NCCc2ccc(CCN3C[C@H](O)[C@@H](O)[C@H](O)[C@H]3CO)cc2)c1 [Compound 1117, 3-chloro-5-{[2-(4-{2-[(2R,3R,4R,5S)-3,4,5-trihydroxy-2-(hydroxymethyl)piperidin-1-yl]ethyl}phenyl)ethyl]amino}benzoic acid]",4.74,6.30
"O=C(O)c1cc(NCCCCCCN2C[C@H](O)[C@@H](O)[C@H](O)[C@H]2CO)cc(-c2ncccn2)c1 [Compound 1118, 3-(pyrimidin-2-yl)-5-({6-[(2R,3R,4R,5S)-3,4,5-trihydroxy-2-(hydroxymethyl)piperidin-1-yl]hexyl}amino) benzoic acid]",5.61,7.57
"Cc1cc(CN2CCOCC2)cc(NCc2ccc(CN3C[C@H](O)[C@@H](O)[C@H](O)[C@H]3CO)cc2)c1 [Compound 1005, (2R,3R,4R,5S)-2-(hydroxymethyl)-1-({4-[({3-methyl-5-[(morpholin-4-yl)methyl]phenyl}amino)methyl]phenyl}methyl)piperidine-3,4,5-triol]",< 4.00,6.10
"Cc1cc(NCc2ccc(CN3C[C@H](O)[C@@H](O)[C@H](O)[C@H]3CO)cc2)cc(-c2ccc[nH]2)c1 [Compound 1051, (2R,3R,4R,5S)-2-(hydroxymethyl)-1-{[4-({[3-methyl-5-(1H-pyrrol-2-yl)phenyl]amino}methyl)phenyl]methyl}piperidine-3,4,5-triol]",4.82,6.54
"Cc1cc(NCc2ccc(CN3C[C@H](O)[C@@H](O)[C@H](O)[C@H]3CO)cc2)cc(N2CCOCC2)c1 [Compound 1048, (2R,3R,4R,5S)-2-(hydroxymethyl)-1-{[4-({[3-methyl-5-(morpholin-4-yl)phenyl]amino}methyl)phenyl]methyl}piperidine-3,4,5-triol]",< 4.00,6.44
"[N-]=[N+]=Nc1ccc(NCC[C@H]2CC[C@H](CCN3C[C@H](O)[C@@H](O)[C@H](O)[C@H]3CO)CC2)c([N+](=O)[O-])c1 [Compound 1107, (2R,3R,4R,5S)-2-(hydroxymethyl)-1-{2-[(1r,4r)-4-{2-[(4-azido-2-nitrophenyl)amino]ethyl}cyclohexyl]ethyl}piperidine-3,4,5-triol]",6.44,5.50
"[N-]=[N+]=Nc1ccc(NCC[C@H]2CC[C@@H](CCN3C[C@H](O)[C@@H](O)[C@H](O)[C@H]3CO)CC2)c([N+](=O)[O-])c1 [Compound 1106, (2R,3R,4R,5S)-2-(hydroxymethyl)-1-{2-[(1s,4s)-4-{2-[(4-azido-2-nitrophenyl)amino]ethyl}cyclohexyl]ethyl}piperidine-3,4,5-triol]",5.16,7.44
"N#Cc1cc(NCc2ccc(CN3C[C@H](O)[C@@H](O)[C@H](O)[C@H]3CO)cc2)cc(-c2ccc[nH]2)c1 [Compound 1063, 3-(1H-pyrrol-2-yl)-5-{[(4-{[(2R,3R,4R,5S)-3,4,5-trihydroxy-2-(hydroxymethyl)piperidin-1-yl]methyl}phenyl)methyl]amino}-benzonitrile]",< 4.00,7.49
"CS(=O)(=O)c1cc(NCc2ccc(CN3C[C@H](O)[C@@H](O)[C@H](O)[C@H]3CO)cc2)cc(-c2ncccn2)c1 [Compound 1059, (2R,3R,4R,5S)-2-(hydroxymethyl)-1-{[4-({[3-methanesulfonyl-5-(pyrimidin-2-yl)phenyl]amino}methyl)phenyl]methyl}piperidine-3,4,5-triol]",< 4.00,7.13
"O=[N+]([O-])c1cc(-c2ncccn2)ccc1NCc1ccc(CN2C[C@H](O)[C@@H](O)[C@H](O)[C@H]2CO)cc1 [Compound 1102, (2R,3R,4R,5S)-2-(hydroxymethyl)-1-{[4-({[2-nitro-4-(pyrimidin-2-yl)phenyl]amino}methyl)phenyl]methyl}piperidine-3,4,5-triol]",4.54,7.55
"[N-]=[N+]=Nc1ccc(NCc2ccc(Cc3ccc(CN4C[C@H](O)[C@@H](O)[C@H](O)[C@H]4CO)cc3)cc2)c([N+](=O)[O-])c1 [Compound 1105, (2R,3R,4R,5S)-1-({4-[(4-{[(4-azido-2-nitrophenyl)amino]methyl}phenyl)methyl]phenyl}methyl)-2-(hydroxymethyl)piperidine-3,4,5-triol]",5.04,7.22
"O=[N+]([O-])c1cc(-c2cccnn2)ccc1NCc1ccc(CN2C[C@H](O)[C@@H](O)[C@H](O)[C@H]2CO)cc1 [Compound 1101, (2R,3R,4R,5S)-2-(hydroxymethyl)-1-{[4-({[2-nitro-4-(pyridazin-3-yl)phenyl]amino}methyl)phenyl]methyl}piperidine-3,4,5-triol]",4.49,7.60
"O=[N+]([O-])c1cc(-c2ncc[nH]2)ccc1NCCc1ccc(CCN2C[C@H](O)[C@@H](O)[C@H](O)[C@H]2CO)cc1 [Compound 1078, (2R,3R,4R,5S)-2-(hydroxymethyl)-1-{2-[4-(2-{[4-(1H-imidazol-2-yl)-2-nitrophenyl]amino}ethyl)phenyl]ethyl}piperidine-3,4,5-triol]",5.16,6.46
"O=[N+]([O-])c1cc(-c2ccc[nH]2)ccc1NCc1cccc(CN2C[C@H](O)[C@@H](O)[C@H](O)[C@H]2CO)c1 [Compound 1088, (2R,3R,4R,5S)-2-(hydroxymethyl)-1-{[3-({[2-nitro-4-(1H-pyrrol-2-yl)phenyl]amino}methyl)phenyl]methyl}piperidine-3,4,5-triol]",4.16,5.71
O=[N+]([O-])c1cc(CN2CCCO2)ccc1NCc1cccc(CN2C[C@H](O)[C@@H](O)[C@H](O)[C@H]2CO)c1 [Compound 1086],< 4.00,6.01
"CC(C)c1cc(CCNc2ccc(N=[N+]=[N-])cc2[N+](=O)[O-])cc(CCN2C[C@H](O)[C@@H](O)[C@H](O)[C@H]2CO)c1 [Compound 1077, (2R,3R,4R,5S)-1-[2-(3-{2-[(4-azido-2-nitrophenyl)amino]ethyl}-5-(propan-2-yl)phenyl)ethyl]-2-(hydroxymethyl)piperidine-3,4,5-triol]",6.42,5.00
